Measurements as given in patent US20100069415A1, “2,6-DIPHENYL-4,8-DIAZOADAMANTAN-1-ONE AND DERIVATIVES THEREOF, PROCESS OF MANUFACTURE AND USE FOR THE FORMULATION OF SOLUTIONS WITH STERILIZING AND DISINFECTANT EFFECT” (PIETRO AFFAITATI, priority 2006, published 2010).

Assay: Solubility characterization of 2,6-diphenyl-4,8-diazoadamantan-1-one
Format: physicochemical
From the text: This molecule is soluble in propylene glycol and apolar organic solvents, whereas it is insoluble in water and ethanol.

In the case of 2,6-diphenyl-4,8-diazoadamantan-1-one, the “solubility in apolar organic solvents” value (solvent: apolar organic solvents) was “soluble”, the solubility in ethanol (solvent: ethanol) was “insoluble” and the “solubility in propylene glycol” value (solvent: propylene glycol) was “soluble”. The solubility in water (solvent: water) was “insoluble”.
